In patent US20230081426A1, “COMPOUNDS AND METHODS FOR KRAS MODULATION AND INDICATIONS THEREFOR” (Plexxikon Inc., priority 2020, published 2023) one finds IC50 data, which are given here for 15 compounds.

The target of experiment [1] is T1, G12D-mutant human KRAS (amino acid residues 1-188) (Homo sapiens, UniProt P01116, G12D).
T1 construct: G12D or G12C-mutant human KRAS (amino acid residues 1-188) with FLAG tag; made in house; host or cells: E. coli
Briefly: KRAS Binding Disruption Assay (AlphaScreen; biotinylated KRpep-2d analogue or RAF1-RBD), G12D. Conditions: KRAS G12D; geometric mean; read-out: KRAS GMean IC50 (uM) MUTATION: G12D. The essentials: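 Compounds are titrated against 5-20 nM mutant KRAS and 5-20 nM of either a biotinylated KRpep-2d analogue or RAF1-RBD, incubated 1 h at 25° C. Disruption is detected as reduced Alpha signal after 1 h with donor and acceptor beads at 10 μg/mL.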

Experiment [2] has as its target T2, G12V-mutant human KRAS (amino acid residues 1-188) (Homo sapiens, UniProt P01116, G12V).
T2 construct: G12V-mutant human KRAS (amino acid residues 1-188) with FLAG tag was purified from E. coli; made in house; host or cells: E. coli
Briefly: KRAS Binding Competition Assay (AlphaScreen; biotinylated KRpep-2d analogue), G12V. Conditions: geometric mean, read-out: KRAS GMean IC50 (uM) MUTATION: G12V.

As to `CN1CCC[C@H]1COc1nc(N2[C@@H]3CC[C@H]2CN(c2cnccn2)C3)c2ccc(-c3cc(O)cc4ccccc34)cc2n1` [P-0268, 4-(2-(((S)-1-methylpyrrolidin-2-yl)methoxy)-4-((1R,5S)-3-(pyrazin-2-yl)-3,8-diazabicyclo[3.2.1]octan-8-yl)quinazolin-7-yl)naphthalen-2-ol], the IC50 in experiment [1] and in experiment [2] was 10 to 100 µM throughout.

For the compound `CN1CCC[C@H]1COc1nc(N2[C@@H]3CC[C@H]2CN(CC(=O)N2CCNCC2)C3)c2ccc(-c3cc(O)cc4ccccc34)cc2n1` [P-0269, 2-((1R,5S)-8-(7-(3-hydroxynaphthalen-1-yl)-2-(((S)-1-methylpyrrolidin-2-yl)methoxy)quinazolin-4-yl)-3,8-diazabicyclo[3.2.1]octan-3-yl)-1-(piperazin-1-yl)ethan-1-one], the IC50 (in general, the point on the concentration scale where inhibition reaches its midpoint) in experiment [1] was 0.0001 to 10 µM; in experiment [2], 10 to 100 µM.

As to `CN1CCC[C@H]1COc1nc(N2[C@@H]3CC[C@H]2CN(c2nccc(N)n2)C3)c2ccc(-c3cc(O)cc4ccccc34)cc2n1` [P-0270, 4-(4-((1R,5S)-3-(4-aminopyrimidin-2-yl)-3,8-diazabicyclo[3.2.1]octan-8-yl)-2-(((S)-1-methylpyrrolidin-2-yl)methoxy)quinazolin-7-yl)naphthalen-2-ol], the values for the IC50 in experiment [1] and in experiment [2] were 0.0001 to 10 µM and 10 to 100 µM, respectively.

With `CN1CCC[C@H]1COc1nc(N2[C@@H]3CC[C@H]2CN(C(=O)Nc2ccn[nH]2)C3)c2ccc(-c3cc(O)cc4ccccc34)cc2n1` [P-0271, (1R,5S)-8-(7-(3-hydroxynaphthalen-1-yl)-2-(((S)-1-methylpyrrolidin-2-yl)methoxy)quinazolin-4-yl)-N-(1H-pyrazol-5-yl)-3,8-diazabicyclo[3.2.1]octane-3-carboxamide], the concentration for half-maximal inhibition (IC50) in experiment [1] fell in the range of 10 to 100 µM; in experiment [2], 0.0001 to 10 µM.

Consider `CN1CCC[C@H]1COc1nc(N2[C@@H]3CC[C@H]2CN(CC(O)CO)C3)c2ccc(-c3cc(O)cc4ccccc34)cc2n1` (stereo partly drawn) [P-0272, 3-((1R,5S)-8-(7-(3-hydroxynaphthalen-1-yl)-2-(((S)-1-methylpyrrolidin-2-yl)methoxy)quinazolin-4-yl)-3,8-diazabicyclo[3.2.1]octan-3-yl)propane-1,2-diol], for which the half-inhibitory concentration (IC50) in experiment [1] was 0.0001 to 10 µM; in experiment [2] it was 10 to 100 µM.

Regarding `CN1CCC[C@H]1COc1nc(N2[C@@H]3CC[C@H]2CN(C(=O)c2cc[nH]n2)C3)c2ccc(-c3cc(O)cc4ccccc34)cc2n1` [P-0273, ((1R,5S)-8-(7-(3-hydroxynaphthalen-1-yl)-2-(((S)-1-methylpyrrolidin-2-yl)methoxy)quinazolin-4-yl)-3,8-diazabicyclo[3.2.1]octan-3-yl)(1H-pyrazol-3-yl)methanone], the IC50 in experiment [1] and in experiment [2] was 10 to 100 µM throughout.

`CN1CCC[C@H]1COc1nc(N2[C@@H]3CC[C@H]2CN(CC(=O)N2CCC(N)CC2)C3)c2ccc(-c3cc(O)cc4ccccc34)cc2n1` [P-0274, 1-(4-aminopiperidin-1-yl)-2-((1R,5S)-8-(7-(3-hydroxynaphthalen-1-yl)-2-(((S)-1-methylpyrrolidin-2-yl)methoxy)quinazolin-4-yl)-3,8-diazabicyclo[3.2.1]octan-3-yl)ethan-1-one]: the IC50 in experiment [1] lay in the range of 0.0001 to 10 µM; in experiment [2], 100 to 1000 µM.

As for `CN1CCC[C@H]1COc1nc(N2[C@@H]3CC[C@H]2CN(CC(=O)N2CC(O)C2)C3)c2ccc(-c3cc(O)cc4ccccc34)cc2n1` [P-0275, 1-(3-hydroxyazetidin-1-yl)-2-((1R,5S)-8-(7-(3-hydroxynaphthalen-1-yl)-2-(((S)-1-methylpyrrolidin-2-yl)methoxy)quinazolin-4-yl)-3,8-diazabicyclo[3.2.1]octan-3-yl)ethan-1-one], the IC50 in experiment [1] and in experiment [2] was 10 to 100 µM throughout.

Consider `CN1CCC[C@H]1COc1nc(N2[C@@H]3CC[C@H]2CN(CC(=O)N2CCOCC2)C3)c2ccc(-c3cc(O)cc4ccccc34)cc2n1` [P-0276, 2-((1R,5S)-8-(7-(3-hydroxynaphthalen-1-yl)-2-(((S)-1-methylpyrrolidin-2-yl)methoxy)quinazolin-4-yl)-3,8-diazabicyclo[3.2.1]octan-3-yl)-1-morpholinoethan-1-one], for which the IC50 in experiment [1] and in experiment [2] was 10 to 100 µM in each case.

Turning to `CN1CCN(C(=O)CN2C[C@H]3CC[C@@H](C2)N3c2nc(OC[C@@H]3CCCN3C)nc3cc(-c4cc(O)cc5ccccc45)ccc23)CC1` [P-0277, 2-((1R,5S)-8-(7-(3-hydroxynaphthalen-1-yl)-2-(((S)-1-methylpyrrolidin-2-yl)methoxy)quinazolin-4-yl)-3,8-diazabicyclo[3.2.1]octan-3-yl)-1-(4-methylpiperazin-1-yl)ethan-1-one], the IC50 lay within 0.0001 to 10 µM in experiment [1] and 10 to 100 µM in experiment [2].

On to `CN1CCC[C@H]1COc1nc(N2C[C@H]3CC[C@@H](C2)N3CC(=O)C2CCOC2)c2ccc(-c3cc(O)cc4ccccc34)c(F)c2n1` (stereo partly drawn) [P-0278, 2-((1R,5S)-3-(8-fluoro-7-(3-hydroxynaphthalen-1-yl)-2-(((S)-1-methylpyrrolidin-2-yl)methoxy)quinazolin-4-yl)-3,8-diazabicyclo[3.2.1]octan-8-yl)-1-(tetrahydrofuran-3-yl)ethan-1-one], for which the concentration for half-maximal inhibition (IC50) in experiment [1] was 0.0001 to 10 µM; in experiment [2], 10 to 100 µM.

Consider `CN(C)CCNS(=O)(=O)N1[C@@H]2CC[C@H]1CN(c1nc(OCC34CCCN3CCC4)nc3c(F)c(-c4cc(O)cc5ccccc45)ccc13)C2` [P-0280, (1R,5S)-N-(2-(dimethylamino)ethyl)-3-(8-fluoro-7-(3-hydroxynaphthalen-1-yl)-2-((tetrahydro-1H-pyrrolizin-7a(5H)-yl)methoxy)quinazolin-4-yl)-3,8-diazabicyclo[3.2.1]octane-8-sulfonamide], for which the IC50 in experiment [1] and in experiment [2] was 0.0001 to 10 µM in each case.

Turning to `CN1CCN(CCNS(=O)(=O)N2[C@@H]3CC[C@H]2CN(c2nc(OCC45CCCN4CCC5)nc4c(F)c(-c5cc(O)cc6ccccc56)ccc24)C3)CC1` [P-0281, (1R,5S)-3-(8-fluoro-7-(3-hydroxynaphthalen-1-yl)-2-((tetrahydro-1H-pyrrolizin-7a(5H)-yl)methoxy)quinazolin-4-yl)-N-(2-(4-methylpiperazin-1-yl)ethyl)-3,8-diazabicyclo[3.2.1]octane-8-sulfonamide], the 50% inhibitory concentration (IC50) in experiment [1] and in experiment [2] was 0.0001 to 10 µM each time.

Take `CN1CC[C@@H](NS(=O)(=O)N2[C@@H]3CC[C@H]2CN(c2nc(OCC45CCCN4CCC5)nc4c(F)c(-c5cc(O)cc6ccccc56)ccc24)C3)C1` [P-0282, (1R,5S)-3-(8-fluoro-7-(3-hydroxynaphthalen-1-yl)-2-((tetrahydro-1H-pyrrolizin-7a(5H)-yl)methoxy)quinazolin-4-yl)-N-((R)-1-methylpyrrolidin-3-yl)-3,8-diazabicyclo[3.2.1]octane-8-sulfonamide]: the IC50 in experiment [1] and in experiment [2] was 0.0001 to 10 µM in each case.

For `CN1CCC[C@H]1COc1nc(N2[C@@H]3CC[C@H]2CNC3)c2ccc(-c3cccc4cccc(CO)c34)cc2n1` [P-0283, (8-(4-((1R,5S)-3,8-diazabicyclo[3.2.1]octan-8-yl)-2-(((S)-1-methylpyrrolidin-2-yl)methoxy)quinazolin-7-yl)naphthalen-1-yl)methanol], the concentration for half-maximal inhibition (IC50) in experiment [1] and in experiment [2] was 10 to 100 µM each time.
